Where two headings read alike, the source gives them in different places.
Columns and labels:
CML-T1 = assay: OncoPanel cell proliferation assay, CML-T1; assay type: cell-based, human; conditions: for Relative cell count (%) Mean: CML-T1
Method: (§1) Cells were grown in RPMI 1640, 10% FBS, 2 mM L-alanyl-L-glutamine, 1 mM Na pyruvate, or a special medium. Cells were seeded into 384-well plates and incubated in a humidified atmosphere of 5% CO2 at 37° C. Compounds were added the day following cell seeding. At the same time, a time zero untreated cell plate was generated. After a 3-day incubation period, cells were fixed and stained to allow fluorescence imaging of nuclei. Compounds (1 mM stock solutions) were serially diluted in half-log steps from the highest test concentration ([…]), and assayed over 10 concentrations with a maximum assay concentration of 0.1% DMSO. Automated fluorescence microscopy was carried out using a Molecular Devices ImageXpress Micro XL high-content imager, and images were collected with a 4× objective. 16-bit TIFF images were acquired and analyzed with MetaXpress 5.1.0.41 software.
(§2) Cell proliferation was measured by the fluorescence intensity of an incorporated nuclear dye. The output is referred to as the relative cell count, where the measured nuclear intensity is transformed to percent of control (POC) using the following formula: […]
(§3) Cellular response parameters were calculated using nonlinear regression to a sigmoidal single-site dose response model:
(§4) Where y is a response measured at concentration x, A and B are the lower and upper limits of the response, C is the concentration at the response midpoint (EC50), and D is the Hill Slope (Ref. 1).
(§5) EC50 is the test compound concentration at the curve inflection point or half the effective response (parameter C of the fitted curve solution). GI50 is the concentration needed to reduce the observed growth by half (midway between the curve maximum and the time zero value). “Cell Count Activity Area” is an estimate of the integrated area above the curve (Barretina, et al. The Cancer Cell Line Encyclopedia enables predictive modelling of anticancer drug sensitivity. Nature 483: 603-607). […] In rare instances, values <0 or >10 may be observed. […] Curve-fitting, calculations, and report generation was performed using a custom data reduction engine and MathIQ based software (AIM).

CaOV3 = assay: OncoPanel cell proliferation assay, CaOV3; assay type: cell-based, human; conditions: for Relative cell count (%) Mean: CaOV3
Method: as §1, §2, §3, §4, §5

SK-MEL-28 = assay: OncoPanel cell proliferation assay, SK-MEL-28; assay type: cell-based, human; conditions: for Relative cell count (%) Mean: SK-MEL-28
Method: as §1, §2, §3, §4, §5

NCI-H510A = assay: OncoPanel cell proliferation assay, NCI-H510A; assay type: cell-based, human
Method: as §1, §2, §3, §4, §5

SCaBER = assay: OncoPanel cell proliferation assay, SCaBER; assay type: cell-based, human
Method: as §1, §2, §3, §4, §5

SNU-5 = assay: OncoPanel cell proliferation assay, SNU-5; assay type: cell-based, human; conditions: for Relative cell count (%) Mean: SNU-5
Method: as §1, with “Cells” for “Cells were grown in RPMI 1640, 10% FBS, 2 mM L-alanyl-L-glutamine, 1 mM Na pyruvate, or a special medium. Cells”
as §2, §3, §4
GI50 is the concentration needed to reduce the observed growth by half (midway between the curve maximum and the time zero value). […] In rare instances, values <0 or >10 may be observed. […] Curve-fitting, calculations, and report generation was performed using a custom data reduction engine and MathIQ based software (AIM).

RKOE6 = assay: OncoPanel cell proliferation assay, RKOE6; conditions: for Relative cell count (%) Mean: RKOE6
Method: Cells were seeded into 384-well plates and incubated in a humidified atmosphere of 5% CO2 at 37° C. Compounds were added the day following cell seeding. At the same time, a time zero untreated cell plate was generated. After a 3-day incubation period, cells were fixed and stained to allow fluorescence imaging of nuclei. Compounds (1 mM stock solutions) were serially diluted in half-log steps from the highest test concentration (1 micromol), and assayed over 10 concentrations with a maximum assay concentration of 0.1% DMSO. Automated fluorescence microscopy was carried out using a Molecular Devices ImageXpress Micro XL high-content imager, and images were collected with a 4× objective. 16-bit TIFF images were acquired and analyzed with MetaXpress 5.1.0.41 software.

[1] = Homo sapiens, 72 h, 3-day incubation, read-out: Cell Count EC50
[2] = Homo sapiens, 72 h, 3-day incubation, read-out: Cell Count GI50
[3] = Homo sapiens, 72 h, 3-day incubation, read-out: Cell Count IC50

## CO[C@H]1C[C@@H]2CC[C@@H](C)[C@@](O)(O2)C(=O)C(=O)N2CCCC[C@H]2C(=O)O[C@H]([C@H](C)C[C@@H]2C[C@@H]3C[C@H]2C[C@H]3O)CC(=O)[C@H](C)/C=C(\C)[C@@H](O)[C@@H](OC)C(=O)[C@H](C)C[C@H](C)/C=C/C=C/C=C/1C [Formula I, 37R-hydroxynorbornylrapamycin]
CML-T1; 3.17E−02 microM
  Relative cell count (%) Mean: 42.3%
CML-T1; 3.17E−03 microM
  Relative cell count (%) Mean: 49.5%
CML-T1; 3.18E−04 microM
  Relative cell count (%) Mean: 65.3%
CML-T1; 3.18E−05 microM
  Relative cell count (%) Mean: 90.6%
CML-T1; Homo sapiens, 72 h, CML-T1, 3-day incubation, read-out: Cell Count EC50
  EC50: 0.317 nM
CML-T1; Homo sapiens, 72 h, CML-T1, 3-day incubation, read-out: Cell Count GI50
  GI50: 0.998 nM
CML-T1; Homo sapiens, 72 h, CML-T1, 3-day incubation, read-out: Cell Count IC50
  IC50: 2.51 nM
CaOV3; CaOV3, scale 0-10
  Cell Count Activity Area: 2.82
CaOV3; 1.00E+00 microM
  Relative cell count (%) Mean: 54.4%
CaOV3; 1.00E−01 microM
  Relative cell count (%) Mean: 58.3%
CaOV3; 1.00E−02 microM
  Relative cell count (%) Mean: 64.8%
CaOV3; 1.00E−03 microM
  Relative cell count (%) Mean: 75.3%
CaOV3; 1.01E−04 microM
  Relative cell count (%) Mean: 91.0%
CaOV3; 3.16E−01 microM
  Relative cell count (%) Mean: 57.1%
CaOV3; 3.17E−02 microM
  Relative cell count (%) Mean: 59.5%
CaOV3; 3.17E−03 microM
  Relative cell count (%) Mean: 68.5%
CaOV3; 3.18E−04 microM
  Relative cell count (%) Mean: 85.0%
CaOV3; 3.18E−05 microM
  Relative cell count (%) Mean: 92.8%
CaOV3; Homo sapiens, Caov-3, 72 h, CaOV3, 3-day incubation, read-out: Cell Count EC50
  EC50: 0.976 nM
CaOV3; Homo sapiens, Caov-3, 72 h, CaOV3, 3-day incubation, read-out: Cell Count GI50
  GI50: 9.68 nM
CaOV3; Homo sapiens, Caov-3, 72 h, CaOV3, 3-day incubation, read-out: Cell Count IC50
  IC50: > 1000 nM
SK-MEL-28; Homo sapiens, 72 h, SK-MEL-28, 3-day incubation, read-out: Cell Count EC50
  EC50: 0.194 nM
SK-MEL-28; Homo sapiens, 72 h, SK-MEL-28, 3-day incubation, read-out: Cell Count GI50
  GI50: > 1000 nM
SK-MEL-28; Homo sapiens, 72 h, SK-MEL-28, 3-day incubation, read-out: Cell Count IC50
  IC50: > 1000 nM
SK-MEL-28; Homo sapiens, Table 4 summary, SK-MEL-28, Melanoma, read-out: EC50
  EC50: 0.19 nM
SK-MEL-28; SK-MEL-28, scale 0-10
  Cell Count Activity Area: 1.87
SK-MEL-28; 1.00E−01 microM
  Relative cell count (%) Mean: 65.6%
SK-MEL-28; 1.00E−02 microM
  Relative cell count (%) Mean: 71.4%
SK-MEL-28; 1.00E−03 microM
  Relative cell count (%) Mean: 75.0%
SK-MEL-28; 1.01E−04 microM
  Relative cell count (%) Mean: 88.2%
SK-MEL-28; 3.17E−02 microM
  Relative cell count (%) Mean: 68.9%
SK-MEL-28; 3.17E−03 microM
  Relative cell count (%) Mean: 70.8%
SK-MEL-28; 3.18E−04 microM
  Relative cell count (%) Mean: 79.6%
SK-MEL-28; 3.18E−05 microM
  Relative cell count (%) Mean: 93.8%
NCI-H510A; 1.00E+00 microM
  Relative cell count (%) Mean: 66.2%
NCI-H510A; 1.00E−01 microM
  Relative cell count (%) Mean: 62.8%
NCI-H510A; 1.00E−02 microM
  Relative cell count (%) Mean: 69.5%
NCI-H510A; 1.00E−03 microM
  Relative cell count (%) Mean: 68.9%
NCI-H510A; 1.01E−04 microM
  Relative cell count (%) Mean: 77.7%
NCI-H510A; 3.16E−01 microM
  Relative cell count (%) Mean: 66.3%
NCI-H510A; 3.17E−02 microM
  Relative cell count (%) Mean: 64.7%
NCI-H510A; 3.17E−03 microM
  Relative cell count (%) Mean: 72.2%
NCI-H510A; 3.18E−04 microM
  Relative cell count (%) Mean: 70.5%
NCI-H510A; 3.18E−05 microM
  Relative cell count (%) Mean: 75.7%
NCI-H510A; [1]
  EC50: 3.99 pM
NCI-H510A; [2]
  GI50: 0.83 nM
NCI-H510A; [3]
  IC50: > 1000 nM
NCI-H510A; Homo sapiens, Table 4 summary, Small cell lung cancer, read-out: EC50
  EC50: 4 pM
NCI-H510A; scale 0-10
  Cell Count Activity Area: 3.05
SCaBER; 1.00E+00 microM
  Relative cell count (%) Mean: 32.4%
SCaBER; 1.00E−01 microM
  Relative cell count (%) Mean: 36.9%
SCaBER; 1.00E−02 microM
  Relative cell count (%) Mean: 35.4%
SCaBER; 1.00E−03 microM
  Relative cell count (%) Mean: 44.7%
SCaBER; 1.01E−04 microM
  Relative cell count (%) Mean: 61.7%
SCaBER; 3.16E−01 microM
  Relative cell count (%) Mean: 33.0%
SCaBER; 3.17E−02 microM
  Relative cell count (%) Mean: 34.0%
SCaBER; 3.17E−03 microM
  Relative cell count (%) Mean: 38.7%
SCaBER; 3.18E−04 microM
  Relative cell count (%) Mean: 55.4%
SCaBER; 3.18E−05 microM
  Relative cell count (%) Mean: 81.9%
SCaBER; [1]
  EC50: 0.0947 nM
SCaBER; [2]
  GI50: 0.262 nM
SCaBER; [3]
  IC50: 0.451 nM
SCaBER; Homo sapiens, Table 4 summary, Bladder, read-out: EC50
  EC50: 0.095 nM
SCaBER; scale 0-10
  Cell Count Activity Area: 5.46
SNU-5; Homo sapiens, 72 h, SNU-5, 3-day incubation, read-out: Cell Count EC50
  EC50: 2.05 nM
SNU-5; Homo sapiens, 72 h, SNU-5, 3-day incubation, read-out: Cell Count GI50
  GI50: 23.8 nM
SNU-5; Homo sapiens, 72 h, SNU-5, 3-day incubation, read-out: Cell Count IC50
  IC50: > 1000 nM
SNU-5; SNU-5, scale 0-10
  Cell Count Activity Area: 2.14
SNU-5; 1.00E+00 microM
  Relative cell count (%) Mean: 62.8%
SNU-5; 1.00E−01 microM
  Relative cell count (%) Mean: 65.7%
SNU-5; 1.00E−02 microM
  Relative cell count (%) Mean: 73.2%
SNU-5; 1.00E−03 microM
  Relative cell count (%) Mean: 84.5%
SNU-5; 1.01E−04 microM
  Relative cell count (%) Mean: 95.3%
SNU-5; 3.16E−01 microM
  Relative cell count (%) Mean: 64.0%
SNU-5; 3.17E−02 microM
  Relative cell count (%) Mean: 65.8%
SNU-5; 3.17E−03 microM
  Relative cell count (%) Mean: 77.6%
SNU-5; 3.18E−04 microM
  Relative cell count (%) Mean: 91.2%
SNU-5; 3.18E−05 microM
  Relative cell count (%) Mean: 96.3%
RKOE6; Homo sapiens, RKOE6, 72 h, read-out: Cell Count EC50
  EC50: 0.201 nM
RKOE6; Homo sapiens, RKOE6, 72 h, read-out: Cell Count GI50
  GI50: 1.07 nM
RKOE6; Homo sapiens, RKOE6, 72 h, read-out: Cell Count IC50
  IC50: 2.88 nM
RKOE6; RKOE6, scale 0-10
  Cell Count Activity Area: 4.44
RKOE6; 1.00E+00 microM
  Relative cell count (%) Mean: 41.6%
RKOE6; 1.00E−01 microM
  Relative cell count (%) Mean: 43.0%
RKOE6; 1.00E−02 microM
  Relative cell count (%) Mean: 47.6%
RKOE6; 1.00E−03 microM
  Relative cell count (%) Mean: 55.7%
RKOE6; 1.01E−04 microM
  Relative cell count (%) Mean: 73.6%
RKOE6; 3.16E−01 microM
  Relative cell count (%) Mean: 41.0%
RKOE6; 3.17E−02 microM
  Relative cell count (%) Mean: 42.9%
RKOE6; 3.17E−03 microM
  Relative cell count (%) Mean: 52.5%
RKOE6; 3.18E−04 microM
  Relative cell count (%) Mean: 66.1%
RKOE6; 3.18E−05 microM
  Relative cell count (%) Mean: 92.5%

From patent US20210024542A1 (Torcept Therapeutics, Inc., priority 2018, published 2021)
